According to US6156291A, “Chemical and pharmacological standardization of herbal extracts” (CV Technologies Inc., priority 1998, dated 2000):
Entries after “also recorded” stand apart in the source; their conditions may differ.

Columns and labels:
[1] = pure ginsenosides; literature; cited from earlier work
[2] = tested on: PC12 (pheochromocytoma) cell lines; conditions: literature; cited from earlier work
[3] = tested on: PC12 (pheochromocytoma) cell lines; experiment: neurite outgrowth in PC12 cells; format: cell-based; conditions: seven days after treatment; FIGS. 26, 27
Description: PC12 cells were seeded and maintained in 100 cm^2 tissue culture dishes at 37° C. in RRMI1640 containing 1% antibiotics, 10% heated inactivated horse serum and 5% fetal bovine serum in a water saturated atmosphere of 95% air and 5% CO2. NIE-115 cells were maintained in a flask in 90% DMEM (Dulbecco's Modified Eagle Medium, Gibco, Grand Island, N.Y., USA) with 10% FBS and antibiotic PNS (penicillin, neomycin streptomycin). The culture plates were maintained in a temperature-controlled (37° C.) humidified atmosphere consisting of 95% room air and 5% CO2. The cells were mechanically dislodged for the experiment by forceful aspiration of the medium through a Pasteur pipette and plated in 35 mm collagen-coated tissue culture dishes containing a total of 2.0 ml of complete medium at a density of 1×10^4 cells/ml. […]
The cellular response to Nerve Growth Factor (NGF) and samples were determined by counting the number of cells contained processes in PC12 cells. […]
The cells and neurites were counted as follows.
Cells with circular or global shapes and no neurite outgrowth were scored as 0 (S0).
Cells with more than two small neurites on the cell bodies were scored as S2.
Cells with one or two neurites with the length of at least two times diameter as their body were scored as S3.
Cells with more than two long neurites were scored as S4.
The neurite index was calculated as below: […]

[4] = Morris Water Maze and Scopolamine induced Amnesia Model; format: in vivo, rat
Excerpt: As CVT-E001 is a mixture of ginsenosides, it may not have the same properties as pure saponins. […] Rats are required to learn the location of a hidden platform in a murky swimming pool. […] The effects of CVT-E001 on memory can also be examined in scopolamine induced amnesia (scopolamine interferes with the cholinergic neurotransmitter system and impedes learning and memory). If CVT-E001 enhances learning and/or memory it should facilitate task acquisition and/or protect against memory loss in scopolamine treated animals.
A study was designed of spatial learning and memory using the Morris water maze and scopolamine induced amnesia with CVT-E001 as the test compound. The specific aim of the experiment was to test if CVT-E001 affected the acquisition and/or retention of a new task in the presence of scopolamine induced amnesia. Rats (S/D strain males, 200-250 g, about 8 weeks old) are initially divided into two groups and fed either water (0.5 ml) or CVT-E001 (200 mg/kg/day in 0.5 ml water by gavage) for the duration of the experiment. Eight days after the initiation of CVT-E001 administration rats are given the task of learning the position of a platform hidden in a pool of murky water. The rats are placed in the pool 4 times per day for 5 days and the time required to find the platform in recorded (maximum duration 5 minutes). This time becomes shorter as the rats learn the task. On day 14 the two groups of rats are further subdivided into four groups. Six rats from each of the initial two groups receive saline injections while the remaining six rats from each initial group receive scopolamine (2 mg/kg) prior to being required to find the platform which has been moved to a new location (3 trials, maximum duration 3 minutes within 30 minutes of receiving either saline or scopolamine injection. On day 15 the procedure for day 14 was repeated with the platform remaining located in the position designated on day 14. On day 16, the procedure from day 14 was again followed except that the platform was moved to a location on the opposite side of the pool. On day 17 the procedure followed on day 14 was repeated except that the platform remains in the location designated on day 16. In each instance the time to locate the platform is recorded.
This experiment was repeated twice using 24 rats each time. The data from the two experiments was combined. One CVT-E001 treated rat died from accidental administration of CVT-E001 into the lungs.
Statistical analysis was by analysis of variance on log transformed data. As a posteriori test of significance were performed using the Newman-Keulstest.

[5] = tested on: rat brain synaptosomes; experiment: choline uptake in rat brain synaptosomes; format: biochemical; conditions: for effect on choline uptake (FIG. 1): various doses, rat brain synaptosomes
Excerpt: (1) Effects of CVT-E001 on choline uptake in isolated brain synaptosomes in rats
(§1) Choline uptake has been examined in synaptosome preparations from whole brain and hippocampus in the presence of Rb1, CVT-E001 and HC3.
The magnitude of these effects are consistent with the previous studies.

[6] = tested on: rat brain synaptosomes; conditions: literature (Benishin, 1992); Rb1 positive control, HC3 negative control; cited from earlier work
[7] = tested on: dorsal and sympathetic ganglia; conditions: literature (Saito 1985), cited from earlier work; for neurite outgrowth by NGF: in presence of NGF; for neurite outgrowth without NGF: on its own
[8] = tested on: synaptosomes prepared from rat hippocampus; experiment: choline uptake into synaptosomes prepared from rat hippocampus; format: biochemical; conditions: Table 2
Excerpt: as §1
This observation is not unexpected as many pharmacological compounds have an optimal dose range and more or less of the material results in less biological activity.

Molecule | learning and memory [1] | effect on choline uptake (FIG. 1) [5] | choline uptake, previously demonstrated [6] | neurite outgrowth by NGF [7] | neurite outgrowth without NGF [7] | other results
CC(C)=CCC[C@](C)(O[C@@H]1O[C@H](CO)[C@@H](O)[C@H](O)[C@H]1O)[C@H]1CC[C@]2(C)[C@@H]1[C@H](O)C[C@@H]1[C@@]3(C)CC[C@H](O)C(C)(C)[C@@H]3[C@@H](O[C@@H]3O[C@H](CO)[C@@H](O)[C@H](O)[C@H]3O)C[C@]12C [Rg1, ginsenoside Rg1] | enhance learning and memory; also recorded: improve memory in experimental animals | – | – | – | – | –
NGF: Nerve Growth Factor, prototype neurotrophin | – | – | – | – | – | PC12 response to NGF treatment [2]: neurite outgrowth and electrical excitability; neurite outgrowth in PC12 [3]: increased neurite outgrowth in PC12 in a dose-dependent manner
CN1[C@@H]2C[C@@H](OC(=O)[C@H](CO)c3ccccc3)C[C@H]1[C@@H]1O[C@@H]12 [scopolamine] | – | – | – | – | – | latency remembering platform location, combined trials ([4]; day 15, scopolamine 2 mg/kg, CVT-E001 200 mg/kg/day, FIG. 19): significantly greater latency than all other groups; latency to second new platform location, trial 3 ([4]; day 16, scopolamine 2 mg/kg, FIG. 20): demonstrated a scopolamine induced learning deficit; latency remembering second platform location, first trial ([4]; day 17, scopolamine 2 mg/kg with or without CVT-E001 200 mg/kg/day, FIG. 22): significantly impaired; latency remembering second platform location, combined trials ([4]; day 17, scopolamine 2 mg/kg with or without CVT-E001 200 mg/kg/day, FIG. 23): demonstrate a learning deficit
C[N+]1(C)CCOC(O)(c2ccc(-c3ccc(C4(O)C[N+](C)(C)CCO4)cc3)cc2)C1 (stereo not shown) [HC3] | – | inhibits choline uptake | inhibit choline uptake | – | – | –
CC(C)=CCC[C@](C)(O[C@@H]1O[C@H](CO)[C@@H](O)[C@H](O)[C@H]1O)[C@H]1CC[C@]2(C)[C@@H]1[C@H](O)C[C@@H]1[C@@]3(C)CC[C@H](O[C@@H]4O[C@H](CO)[C@@H](O)[C@H](O)[C@H]4O[C@@H]4O[C@H](CO)[C@@H](O)[C@H](O)[C@H]4O)C(C)(C)[C@@H]3CC[C@]12C [Rd, ginsenoside Rd] | – | – | – | enhance neurite outgrowth of dorsal and sympathetic ganglia | no effect on its own | –
CC(C)=CCC[C@](C)(O[C@@H]1O[C@H](CO[C@@H]2O[C@H](CO)[C@@H](O)[C@H](O)[C@H]2O)[C@@H](O)[C@H](O)[C@H]1O)[C@H]1CC[C@]2(C)[C@@H]1[C@H](O)C[C@@H]1[C@@]3(C)CC[C@H](O[C@@H]4O[C@H](CO)[C@@H](O)[C@H](O)[C@H]4O[C@@H]4O[C@H](CO)[C@@H](O)[C@H](O)[C@H]4O)C(C)(C)[C@@H]3CC[C@]12C [Rb1, ginsenoside Rb1] | enhance learning and memory; also recorded: improve memory in experimental animals | promotes choline uptake | increase choline uptake into synaptosomes | enhance neurite outgrowth of dorsal and sympathetic ganglia | no effect on its own | choline uptake (in words) [8]: increase choline uptake; stimulation of choline uptake (in words) ([5]; Table 3): significantly stimulate choline uptake; potency ranking, choline uptake ([5]; Table 3, CVT-E001 contains 8.1% Rb1, 32.4% total ginsenosides, n = 4): CVTE001 > TS > Rb1
